From paper PMC8151276, “An Integrated Approach toward NanoBRET Tracers for Analysis of GPCR Ligand Engagement” (Molecules, 2021)

What was measured:
Type in all cases: binding
[1] = target: T1, CXCR4 (Homo sapiens, UniProt P61073); experiment: NanoBRET screen HiBiT-CXCR4 in HEK293
T1 construct: purchased Promega (in-house HiBiT-GPCR construct library, NanoBRET)
Procedure: (§1) Each tracer candidate was screened across the entire library of HiBiT-GPCR constructs using NanoBRET as the detection modality. As depicted in Figure 4A, the specificity of interactions was evaluated through decrease in BRET due to competitive displacement of a bound tracer by excess parental compound. Each tracer was analyzed for binding to each HiBiT-GPCR fusion in the absence and in the presence of competing parental compound. Briefly, HEK293 cells were transfected with HiBiT-GPCR constructs diluted into promoterless DNA to reduce expression and maximize translocation to the cell surface. Each tracer candidate was then screened at concentrations of 1 μM and 0.1 μM across cells expressing these fusions. Cells were treated for 1.5 h with tracer either alone or in the presence of 20 μM competing parental compound (i.e., control). BRET was measured upon addition of purified LgBiT and subsequent complementation with HiBiT genetically fused to a GPCR. The specificity of interactions was assessed through a decrease in BRET signal due to competitive displacement of the bound tracer. To further gauge the robustness of these interactions, the fold response over the control (i.e., BRETtracer/BRETcontrol) was calculated. We chose a 1.5-fold response, which translates to ≥7-fold signal over noise as the minimal threshold required to score an interaction as positive. […]. Below we highlight the screening results obtained for our exemplary fluorescent tracers based on Clozapine, Amitriptyline and AZD1283.
(§2) HiBiT-GPCR DNA constructs were diluted in 10 mM Tris pH 8 to a final concentration of 0.01 μg/μL, arrayed in 96-well plates and stored at −20 °C. For transfection, HEK293 cells were suspended in Opti-MEM (without phenol red) supplemented with 2% fetal bovine serum (Seradigm) and 100 units/mL penicillin–streptomycin (Gibco) at a final concentration of 220,000 cells/mL and dispensed into white 96-well plates at 90 μL/well. Subsequent transfections and screens were carried using an Agilent Bravo Automated Liquid Handling Platform. First, the 96-well HiBiT DNA arrays were diluted 25-fold in Opti-MEM (without serum or phenol red) to a final concentration of 0.0004 μg/μL and 20 μL of the diluted DNAs were transferred into new 96-well plates. Next, promoterless carrier DNA (1 μg/μL) was diluted 25-fold (0.04 μg/μL) and then dispensed into the diluted arrays at 20 μL/well. Following brief mixing, Viafect transfection reagent (Promega) diluted 16-fold into Opti-MEM was dispensed into the plates at 40 μL/well. After mixing by pipetting, plates were incubated for 10 min on the pipetting station deck. The DNA-transfection reagent complexes were then added to plates containing cells. To facilitate the screen, 10 μL of DNA-transfection reagent complexes were added in duplicates to the top 4 and bottom 4 rows, resulting in two identical 48-well arrays per plate. Plates with transfected cells were incubated for 18–20 h at 37 °C/5% CO2. A screen of each tracer across the entire library using two different concentrations requires duplicate plates of transfected cells. Depending on the number of tracers being screened, transfections can be scaled up using the same ratios. The next day, for each tracer, four 20× screening solutions in tracer dilution buffer (Promega) were prepared: two duplicates at final concentration of 20 μM and two duplicates at a final concentration of 2 μM. A competing unmodified compound was added to one of each duplicate at a final concentration of 400 μM. The four resulting solutions were diluted 4-fold in Opti-MEM without serum or phenol red to generate 5× solutions (5 µM and 0.5 µM tracer +/− 100 μM competing compound). To screen the library, a BioTek MultiFlo FX liquid dispenser was used to dispense 22.5 µL of tracer solution to the top 4 rows and 22.5 µL tracer + competing compound solution to the 4 bottom rows. Plates were briefly mixed on an orbital shaker and incubated for 1.5 h at room temperature. […]

[2] = target: T2, HTR1D (Homo sapiens, UniProt P28221); experiment: NanoBRET screen HiBiT-HTR1D in HEK293
T2 construct: purchased Promega (in-house HiBiT-GPCR construct library, NanoBRET)
T2 sequence (P28221 whole entry): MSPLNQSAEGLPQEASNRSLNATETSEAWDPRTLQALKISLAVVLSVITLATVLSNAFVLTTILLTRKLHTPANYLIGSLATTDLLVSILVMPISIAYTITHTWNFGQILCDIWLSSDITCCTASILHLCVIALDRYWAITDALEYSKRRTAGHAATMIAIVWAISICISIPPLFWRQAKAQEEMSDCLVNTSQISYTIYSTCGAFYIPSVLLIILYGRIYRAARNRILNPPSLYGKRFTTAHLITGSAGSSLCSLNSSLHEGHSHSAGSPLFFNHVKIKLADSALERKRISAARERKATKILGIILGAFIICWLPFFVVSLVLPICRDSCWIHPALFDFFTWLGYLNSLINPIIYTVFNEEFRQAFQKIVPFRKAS
Procedure: as §1, §2

[3] = target: T3, OPRL1 (Homo sapiens, UniProt P41146); experiment: NanoBRET screen HiBiT-OPRL1 in HEK293
T3 construct: purchased Promega (in-house HiBiT-GPCR construct library, NanoBRET)
T3 sequence (P41146 whole entry): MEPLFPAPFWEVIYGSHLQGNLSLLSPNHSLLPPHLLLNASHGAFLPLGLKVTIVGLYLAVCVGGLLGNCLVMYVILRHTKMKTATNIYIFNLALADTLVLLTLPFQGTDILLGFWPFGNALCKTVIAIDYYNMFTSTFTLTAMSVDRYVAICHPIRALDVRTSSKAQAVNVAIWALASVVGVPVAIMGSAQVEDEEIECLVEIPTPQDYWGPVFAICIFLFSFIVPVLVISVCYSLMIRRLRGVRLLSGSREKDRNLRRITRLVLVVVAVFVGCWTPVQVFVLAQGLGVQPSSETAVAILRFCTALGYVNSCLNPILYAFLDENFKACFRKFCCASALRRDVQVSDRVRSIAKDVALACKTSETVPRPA
Procedure: as §1, §2

[4] = target: T4, P2RY13 (Homo sapiens, UniProt Q9BPV8); experiment: NanoBRET screen HiBiT-P2RY13 in HEK293
T4 construct: purchased Promega (in-house HiBiT-GPCR construct library, NanoBRET)
T4 sequence (Q9BPV8 1-354): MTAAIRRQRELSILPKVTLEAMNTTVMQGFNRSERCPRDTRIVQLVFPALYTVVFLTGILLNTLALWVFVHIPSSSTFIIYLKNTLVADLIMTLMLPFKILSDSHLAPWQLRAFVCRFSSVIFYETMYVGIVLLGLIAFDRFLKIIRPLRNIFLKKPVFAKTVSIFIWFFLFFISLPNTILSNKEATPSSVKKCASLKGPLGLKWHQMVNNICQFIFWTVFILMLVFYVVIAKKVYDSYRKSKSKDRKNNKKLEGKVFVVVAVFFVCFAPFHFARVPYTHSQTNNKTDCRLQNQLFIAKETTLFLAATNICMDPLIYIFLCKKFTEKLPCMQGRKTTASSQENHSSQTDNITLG
Procedure: as §1, §2

[5] = target: T5, RXFP4 (Homo sapiens, UniProt Q8TDU9); experiment: NanoBRET screen HiBiT-RXFP4 in HEK293
T5 construct: purchased Promega (in-house HiBiT-GPCR construct library, NanoBRET)
T5 sequence (Q8TDU9 whole entry): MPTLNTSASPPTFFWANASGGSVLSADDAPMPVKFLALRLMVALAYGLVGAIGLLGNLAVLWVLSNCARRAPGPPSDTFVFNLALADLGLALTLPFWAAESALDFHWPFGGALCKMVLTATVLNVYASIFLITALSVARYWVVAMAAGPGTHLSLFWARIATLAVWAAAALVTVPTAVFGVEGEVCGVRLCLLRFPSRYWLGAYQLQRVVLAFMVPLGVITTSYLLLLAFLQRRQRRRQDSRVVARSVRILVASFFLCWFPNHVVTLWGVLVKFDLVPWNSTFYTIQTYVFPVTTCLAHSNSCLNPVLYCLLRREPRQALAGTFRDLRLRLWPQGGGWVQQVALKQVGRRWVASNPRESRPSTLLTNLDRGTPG
Procedure: as §1, §2

[6] = target: T6, SSTR1 (Homo sapiens, UniProt P30872); experiment: NanoBRET screen HiBiT-SSTR1 in HEK293
T6 construct: purchased Promega (in-house HiBiT-GPCR construct library, NanoBRET)
T6 sequence (P30872 whole entry): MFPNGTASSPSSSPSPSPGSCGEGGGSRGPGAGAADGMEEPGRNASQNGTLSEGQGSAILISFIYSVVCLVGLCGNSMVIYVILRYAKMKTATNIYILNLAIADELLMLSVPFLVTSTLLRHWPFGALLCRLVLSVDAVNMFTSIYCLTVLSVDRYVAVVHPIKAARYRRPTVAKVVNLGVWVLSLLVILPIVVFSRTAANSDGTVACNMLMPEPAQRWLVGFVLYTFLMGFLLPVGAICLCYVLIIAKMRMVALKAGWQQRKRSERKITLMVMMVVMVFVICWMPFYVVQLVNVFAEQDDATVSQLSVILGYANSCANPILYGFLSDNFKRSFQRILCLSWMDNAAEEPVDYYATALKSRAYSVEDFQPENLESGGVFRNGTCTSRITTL
Procedure: as §1, §2

[7] = target: T7, PTGDR2 (Homo sapiens, UniProt Q9Y5Y4); experiment: NanoBRET screen HiBiT-PTGDR2 in HEK293
T7 construct: purchased Promega (in-house HiBiT-GPCR construct library, NanoBRET)
T7 sequence (Q9Y5Y4 1-395): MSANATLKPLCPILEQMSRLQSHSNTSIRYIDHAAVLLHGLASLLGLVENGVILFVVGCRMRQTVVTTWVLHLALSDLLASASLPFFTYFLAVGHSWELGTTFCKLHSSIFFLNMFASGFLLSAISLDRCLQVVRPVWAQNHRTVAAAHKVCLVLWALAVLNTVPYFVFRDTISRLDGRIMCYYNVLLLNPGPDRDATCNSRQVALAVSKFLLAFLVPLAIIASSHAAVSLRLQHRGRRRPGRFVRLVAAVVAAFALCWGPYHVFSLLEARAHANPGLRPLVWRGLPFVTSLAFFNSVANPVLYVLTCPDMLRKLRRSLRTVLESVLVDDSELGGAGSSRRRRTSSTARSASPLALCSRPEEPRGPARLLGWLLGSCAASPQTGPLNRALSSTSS
Procedure: as §1, §2

[8] = target: T8, GRM2 (Homo sapiens, UniProt Q14416); experiment: NanoBRET screen HiBiT-GRM2 in HEK293
T8 construct: purchased Promega (in-house HiBiT-GPCR construct library, NanoBRET)
T8 sequence (Q14416 19-872): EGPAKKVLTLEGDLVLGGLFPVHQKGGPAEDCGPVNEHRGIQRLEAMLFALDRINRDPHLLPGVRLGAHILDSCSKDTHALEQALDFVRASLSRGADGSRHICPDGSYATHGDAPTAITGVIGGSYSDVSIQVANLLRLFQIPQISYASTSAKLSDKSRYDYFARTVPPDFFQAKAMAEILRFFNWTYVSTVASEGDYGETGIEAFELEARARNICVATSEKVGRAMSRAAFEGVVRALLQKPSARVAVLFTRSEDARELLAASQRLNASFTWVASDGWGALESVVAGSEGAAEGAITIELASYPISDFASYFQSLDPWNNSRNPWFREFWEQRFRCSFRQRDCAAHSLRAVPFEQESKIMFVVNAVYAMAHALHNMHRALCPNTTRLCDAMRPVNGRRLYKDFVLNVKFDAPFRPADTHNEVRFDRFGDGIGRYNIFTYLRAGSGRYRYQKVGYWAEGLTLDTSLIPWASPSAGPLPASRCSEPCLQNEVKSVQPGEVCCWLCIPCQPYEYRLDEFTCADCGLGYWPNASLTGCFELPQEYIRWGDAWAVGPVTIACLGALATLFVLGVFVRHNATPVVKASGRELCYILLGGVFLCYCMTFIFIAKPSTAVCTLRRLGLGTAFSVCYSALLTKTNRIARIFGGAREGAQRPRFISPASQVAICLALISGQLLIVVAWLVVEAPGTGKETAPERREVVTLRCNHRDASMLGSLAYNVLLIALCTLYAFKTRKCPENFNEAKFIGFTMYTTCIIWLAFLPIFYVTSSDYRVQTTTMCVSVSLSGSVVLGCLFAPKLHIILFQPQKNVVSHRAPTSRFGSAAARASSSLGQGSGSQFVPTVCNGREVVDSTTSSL
Procedure: as §1, §2

[9] = tracer at 0.1μM, listed as amitriptyline-b-2-NB590
[10] = tracer at 1μM, listed as amitriptyline-b-2-NB590

T1 sequence (P61073 whole entry): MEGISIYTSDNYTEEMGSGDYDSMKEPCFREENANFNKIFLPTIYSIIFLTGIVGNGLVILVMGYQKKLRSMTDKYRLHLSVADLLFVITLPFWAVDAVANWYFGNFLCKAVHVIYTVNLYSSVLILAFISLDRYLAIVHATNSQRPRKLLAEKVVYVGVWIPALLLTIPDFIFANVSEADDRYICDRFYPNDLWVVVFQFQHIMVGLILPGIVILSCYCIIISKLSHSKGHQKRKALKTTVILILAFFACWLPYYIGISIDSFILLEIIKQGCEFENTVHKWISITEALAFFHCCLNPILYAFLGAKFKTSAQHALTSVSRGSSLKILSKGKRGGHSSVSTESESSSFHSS

Row | Compound | NanoBRET Fold Response ([1]; tracer at 1μM) | NanoBRET Fold Response ([1]; 0.1μM tracer) | NanoBRET Fold Response ([1]; 1μM tracer) | NanoBRET Fold Response ([2]; 0.1μM tracer) | NanoBRET Fold Response ([2]; 1μM tracer) | NanoBRET Fold Response ([3]; 0.1μM tracer) | NanoBRET Fold Response ([3]; 1μM tracer) | NanoBRET Fold Response ([4]; 0.1μM tracer) | NanoBRET Fold Response ([4]; 1μM tracer) | NanoBRET Fold Response ([5]; 0.1μM tracer) | NanoBRET Fold Response ([5]; 1μM tracer) | NanoBRET Fold Response ([6]; 0.1μM tracer) | NanoBRET Fold Response ([6]; 1μM tracer) | NanoBRET Fold Response ([7]; 0.1μM tracer) | NanoBRET Fold Response ([7]; 1μM tracer) | NanoBRET Fold Response ([8]; 0.1μM tracer) | NanoBRET Fold Response ([8]; 1μM tracer) | also measured
1 | CN(C)CCC=C1c2ccccc2CCc2ccc(C(=O)NCCNC(=O)CCOCCOCCOCCOCCNC(=O)CCc3ccc4n3[B-](F)(F)[N+]3=C(c5ccc[nH]5)C=CC3=C4)cc21 [Amitriptyline-b-2-NB590] | 0.70 |  |  |  |  |  |  |  |  |  |  |  |  |  |  |  |  | NanoBRET Fold Response [1, 9]: 1.12; NanoBRET Fold Response [2, 9]: 1.43; NanoBRET Fold Response [2, 10]: 0.74; NanoBRET Fold Response [3, 9]: 1.14; NanoBRET Fold Response [3, 10]: 1.14; NanoBRET Fold Response [4, 9]: 1.08; NanoBRET Fold Response [4, 10]: 0.96; NanoBRET Fold Response [5, 9]: 1.07; NanoBRET Fold Response [5, 10]: 0.89; NanoBRET Fold Response [6, 10]: 1.07; NanoBRET Fold Response ([7]; tracer at 0.1μM): 1.00; NanoBRET Fold Response ([7]; tracer at 1μM): 1.00; NanoBRET Fold Response ([8]; GRM2, tracer 0.1μM): 0.97; NanoBRET Fold Response ([8]; GRM2, tracer 1μM): 0.98
2 | CN(CCC=C1c2ccccc2CCc2ccccc21)C(=O)CCOCCOCCOCCOCCNC(=O)CCc1ccc2n1[B-](F)(F)[N+]1=C(c3ccc[nH]3)C=CC1=C2 [Amitriptyline-e-2-NB590] | 1.15 |  |  |  |  |  |  |  |  |  |  |  |  |  |  |  |  | NanoBRET Fold Response ([2]; tracer at 1μM): 0.96; NanoBRET Fold Response ([3]; tracer at 1μM): 1.10
3 | COc1ccc2c(n1)c(CCNC(C)=O)cn2CCNC(=O)CCc1ccc2n1[B-](F)(F)[N+]1=C(c3ccc[nH]3)C=CC1=C2 [Azamelatonin-1-NB590] |  | 1.11 | 0.82 | 0.68 | 0.68 | 1.14 | 1.14 | 1.08 | 1.08 | 0.73 | 1.04 | 1.08 | 1.03 | 1.08 | 1.09 | 1.19 | 1.00 | 
4 | COc1ccc2[nH]c(-c3ccc(CNC(=O)CCOCCOCCOCCOCCNC(=O)CCc4ccc5n4[B-](F)(F)[N+]4=C(c6ccc[nH]6)C=CC4=C5)cc3)c(CCNC(C)=O)c2n1 [AzomelatoninICO9-2-NB590] |  | 1.00 | 0.81 | 0.63 | 1.14 | 0.71 | 1.05 | 0.87 | 1.09 | 0.94 | 0.96 | 1.13 | 1.01 | 1.06 | 1.12 | 1.11 | 0.95 | 
